Measured values from PMC6766931, “Design, Synthesis, and Activity Evaluation of Novel N-benzyl Deoxynojirimycin Derivatives for Use as α-Glucosidase Inhibitors” (Molecules, 2019).

Biological target: T1, α-glucosidase (Saccharomyces cerevisiae, UniProt P53341)
T1 construct: purchased Sigma-Aldrich
Assay: Enzyme kinetics study (Michaelis-Menten, non-linear regression)
Type: biochemical
Conditions: inhibitor concentration 0.25 mM, substrate PNPG 0.1-5 mM
Protocol: In the enzyme kinetics studies, the enzyme activity was measured at different times using different concentrations of the substrate p-nitrophenyl α-D-glucopyranoside (0.1, 0.2, 0.8, 1.0, 1.2, 1.6, 1.8, 2.0, 2.5, 5 mM). The kinetics of the enzymatic reaction were fit to the Michaelis‒Menten equation. The Michaelis‒Menten equation is as follows:V = Vmax[S]/(Km + [S]).
In this equation, [S] is the concentration of the substrate, Vmax is the maximum reaction velocity of the enzymatic reaction, and Km is the Michaelis constant. […] Non-linear fitting was performed with the help of Origin 8.5, which can calculate the Vmax and Km values. The Ki constant was determined as follows:Ki = [I]/(K’m/Km − 1).
In this formula, [I] is the concentration of inhibitor, K’m is the Michaelis constant of the experimental group, and Km is the Michaelis constant of the blank group.
The same protocol was followed for the experiments reported in Figure 1 except that the inhibitor concentration was 0.25 mM and the substrate concentration was varied as indicated (0.1, 0.2, 0.8, 1.0, 1.2, 1.6, 1.8, 2.0, 2.5, 5 mM). The Km and Vmax values were calculated using […], and then, the Ki value was calculated using the formula that was mentioned in Section 2.3.

T1 sequence (P53341 whole entry): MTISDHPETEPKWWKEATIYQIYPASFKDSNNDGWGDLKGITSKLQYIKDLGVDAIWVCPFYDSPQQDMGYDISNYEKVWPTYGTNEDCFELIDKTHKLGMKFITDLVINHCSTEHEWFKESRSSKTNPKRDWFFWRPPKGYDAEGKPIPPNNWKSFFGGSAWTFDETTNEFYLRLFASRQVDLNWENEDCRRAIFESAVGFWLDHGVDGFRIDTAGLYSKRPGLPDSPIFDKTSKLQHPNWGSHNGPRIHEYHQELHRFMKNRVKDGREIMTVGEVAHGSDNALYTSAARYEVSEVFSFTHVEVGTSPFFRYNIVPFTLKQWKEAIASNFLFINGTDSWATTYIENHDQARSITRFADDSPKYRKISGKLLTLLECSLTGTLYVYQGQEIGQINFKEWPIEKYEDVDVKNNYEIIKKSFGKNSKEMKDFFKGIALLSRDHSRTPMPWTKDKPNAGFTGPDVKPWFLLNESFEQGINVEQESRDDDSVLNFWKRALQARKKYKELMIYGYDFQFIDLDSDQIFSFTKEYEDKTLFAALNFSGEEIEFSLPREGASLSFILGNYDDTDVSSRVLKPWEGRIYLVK

With `C[C@H]1O[C@H](O[C@H]2[C@H](O)[C@@H](O)[C@@H](O[C@H]3[C@H](O)[C@@H](O)C(O)O[C@@H]3CO)O[C@@H]2CO)[C@H](O)[C@@H](O)[C@@H]1N[C@H]1C=C(CO)[C@@H](O)[C@H](O)[C@H]1O` (stereo partly shown) [Acarbose, reference compound] the Vmax was 4.40 ± 0.42 *10^−6 mmol/min.
For `COc1cc(CN2CC(O)C(O)C(O)C2CO)ccc1O` (stereo not shown) [Compound 18a, 1-(4-hydroxy-3-methoxybenzyl)-2-(hydroxymethyl) piperidine-3,4,5-triol], the Vmax was 3.56 ± 0.28 *10^−6 mmol/min.

Same assay, conditions: inhibitor concentration 0.25 mM; Ki = [I]/(K'm/Km − 1)

In the case of `COc1cc(CN2CC(O)C(O)C(O)C2CO)ccc1O` (stereo not shown) [Compound 18a, 1-(4-hydroxy-3-methoxybenzyl)-2-(hydroxymethyl) piperidine-3,4,5-triol], the Ki is reported as 0.11 ± 0.3 mM.

Biological target: T1, α-glucosidase
Assay: In vitro assay of α-glucosidase inhibitory activity (PNPG, 96-well microplates)
Type: biochemical
Conditions: substrate PNPG, pH 6.8, 37 °C, read-out: IC50 (mM) ± SEM

`OCC1C(O)C(O)C(O)CN1Cc1ccc(F)cc1` (stereo not shown) [Compound 12a, 1-(4-fluorobenzyl)-2-(hydroxymethyl) piperidine-3,4,5-triol] and `OCC1C(O)C(O)C(O)CN1Cc1ccc(Cl)cc1` (stereo not shown) [Compound 12b, 1-(4-chlorobenzyl)-2-(hydroxymethyl) piperidine-3,4,5-triol] are within 1.5-fold of each other in IC50: 9.8 ± 0.31 mM for the first, 11.22 ± 0.02 mM for the second.

`OCC1C(O)C(O)C(O)CN1Cc1ccc(Br)cc1` (stereo not shown) [Compound 12c, 1-(4-bromobenzyl)-2-(hydroxymethyl) Piperidine-3,4,5-triol] and `OCC1C(O)C(O)C(O)CN1Cc1ccc(I)cc1` (stereo not shown) [Compound 12d, 2-(hydroxymethyl)-1-(4-iodobenzyl) Piperidine-3,4,5-triol] are within 1.5-fold of each other in IC50: 12.55 ± 0.03 mM for the first, 9.88 ± 0.05 mM for the second.

First: Cc1ccc(CN2CC(O)C(O)C(O)C2CO)cc1 (stereo not shown) [Compound 12e, 2-(hydroxymethyl)-1-(4-methylbenzyl) Piperidine-3,4,5-triol]
Second: COc1ccc(CN2CC(O)C(O)C(O)C2CO)cc1 (stereo not shown) [Compound 12f, 2-(hydroxymethyl)-1-(4-methoxybenzyl) Piperidine-3,4,5-triol]
The IC50 of the first is 8.5-fold higher: 8.65 ± 0.08 mM for the first, 1.02 ± 0.23 mM for the second. The second is the more potent here.

Compared with `OCC1C(O)C(O)C(O)CN1Cc1cccc(F)c1` (stereo not shown) [Compound 12g, 1-(3-fluorobenzyl)-2-(hydroxymethyl) Piperidine-3,4,5-triol], `OCC1C(O)C(O)C(O)CN1Cc1cccc(Cl)c1` (stereo not shown) [Compound 12h, 1-(3-chlorobenzyl)-2-(hydroxymethyl) Piperidine-3,4,5-triol] is 1.5-fold higher in IC50: 10.23 ± 0.02 mM for the first, 15.32 ± 0.04 mM for the second.

`OCC1C(O)C(O)C(O)CN1Cc1cccc(Br)c1` (stereo not shown) [Compound 12i, 1-(3-bromobenzyl)-2-(hydroxymethyl) Piperidine-3,4,5-triol] and `OCC1C(O)C(O)C(O)CN1Cc1cccc(I)c1` (stereo not shown) [Compound 12j, 2-(hydroxymethyl)-1-(3-iodobenzyl) Piperidine-3,4,5-triol] are within 1.5-fold of each other in IC50: 15.66 ± 0.04 mM for the first, 10.54 ± 0.04 mM for the second.

Going from `Cc1cccc(CN2CC(O)C(O)C(O)C2CO)c1` (stereo not shown) [Compound 12k, 2-(hydroxymethyl)-1-(3-methylbenzyl) Piperidine-3,4,5-triol] to `COc1cccc(CN2CC(O)C(O)C(O)C2CO)c1` (stereo not shown) [Compound 12l, 2-(hydroxymethyl)-1-(3-methoxybenzyl) Piperidine-3,4,5-triol], the IC50 falls from 10.3 ± 0.21 mM to 1.25 ± 0.34 mM (8.2-fold). The second is the more potent here.

Compared with `COc1cc(CN2C[C@H](O)[C@@H](O)[C@H](O)[C@H]2CO)cc(Br)c1OCc1ccccc1` [Compound 17b], `COc1cc(CN2CC(O)C(O)C(O)C2CO)cc(Br)c1OC` (stereo not shown) [Compound 17c, 1-(3-bromo-4,5-dimethoxybenzyl)-2-(hydroxymethyl) Piperidine-3,4,5-triol] is 15-fold lower in IC50: 15.68 ± 0.06 mM for the first, 1.06 ± 0.11 mM for the second. The second is the more potent here.

First: COc1cc(CN2CC(O)C(O)C(O)C2CO)c(Br)c(Br)c1OC (stereo not shown) [Compound 17d, 1-(2,3-dibromo-4,5-dimethoxybenzyl)-2-(hydroxymethyl) Piperidine-3,4,5-triol]
Second: COc1c(Br)c(Br)c(CN2C[C@H](O)[C@@H](O)[C@H](O)[C@H]2CO)c(Br)c1OC [Compound 17e, 2-(hydroxymethyl)-1-(2,3,6-tribromo-4,5-dimethoxybenzyl)-2-piperidine-3,4,5-triol]
The IC50 of the first is 8.4-fold lower: 1.14 ± 0.09 mM for the first, 9.57 ± 0.08 mM for the second.

`COc1cc(CN2CC(O)C(O)C(O)C2CO)ccc1O` (stereo not shown) [Compound 18a, 1-(4-hydroxy-3-methoxybenzyl)-2-(hydroxymethyl) piperidine-3,4,5-triol] and `COc1cc(CN2CC(O)C(O)C(O)C2CO)cc(Br)c1O` (stereo not shown) [Compound 18b, 1-(3-bromo-4-hydroxy-5-methoxybenzyl)-2-(hydroxymethyl) piperidine-3,4,5-triol] are within error of each other in IC50: 0.207 ± 0.11 mM for the first, 0.276 ± 0.13 mM for the second.

System: not given
Assay: not given
Set-up: method as in earlier work
Conditions: quickly metabolized and excreted; cited from earlier work

For `OC[C@H]1NC[C@H](O)[C@@H](O)[C@@H]1O` [Compound 1-DNJ, 1-deoxynojirimycin], the “hypoglycaemic effect in vivo” value is given as “no significant hypoglycaemic effect”.

System: not given
Assay: not given
Set-up: method as in PMID 1475231
Conditions: rats, intravenous administration, biphasic reduction in plasma; cited from earlier work

For `CN1C[C@H](O)[C@@H](O)[C@H](O)[C@H]1CO` [N-methyl-DNJ], the “initial t1/2 in plasma” value is listed as 4.5 min.

For `CN1C[C@H](O)[C@@H](O)[C@H](O)[C@H]1CO` [N-methyl-DNJ], the “terminal t1/2 in plasma” value is given as 32 min.

Same assay, conditions: rats, intravenous, at 120 min after administration; cited from earlier work

In the case of `CN1C[C@H](O)[C@@H](O)[C@H](O)[C@H]1CO` [N-methyl-DNJ], the “dose recovered from the urine unchanged” value is listed as 80%.
